Values of other authors, collected in patent publication US20260271921A1, “DILUTION-INDUCED RELEASE COMPOSITIONS AND METHODS OF USE THEREOF” (priority 2025, published 2026).

In the case of `CCN(CC)c1ccc2nc3c4ccccc4c(=O)cc-3oc2c1` [Nile Red], the logP is listed as 3.65.
